In US12258360B2, “Compositions and methods for treatment of anticancer-drug resistant cancers” (THE GEORGE WASHINGTON UNIVERSITY, priority 2020, dated 2025):
Values joined by “and” are separate entries in the source; they are usually repeats but may differ in a detail not shown here. Equal values may be shown once.

Columns and labels:
SREBP target gene SCD-1 = assay: RT-PCR detection of SCD-1 gene expression in AN3CA cells; type: cell-based, human; conditions: 10 μM
Protocol: • 1. Experimental reagent • 2. The experimental steps are as follows: • 2.1 AN3CA cell recovery and culture (10% serum 1% double antibody in MEM medium); • 2.2 passages (passage at a ratio of 1:2); • 2.3 Place 6 well plates when the cell status is good, 5×10^5Well, culture overnight; • 2.4 adding medicine: diluting the final concentration of the drug with a culture medium to 10 μM, 2 mL/well; • 2.5 adding medicine for 48 h, and then extracting RNA; • 2.5.1 removing the culture medium, adding 0.5 mL/hole Trizol to lyse the cells, repeatedly blowing and beating the cells by a pipette after 5 min, completely lysing the cells, transferring the cells into a 1.5 mL EP tube without RNase, and standing the tube for 5 min; • 2.5.2 adding 200 µl chloroform, shaking rapidly, mixing, standing for 10 min 12000 rpm/15 min; • 2.5.3 carefully taking out the supernatant, transferring the supernatant into an EP tube, adding isopropanol with the same volume, reversing, uniformly mixing, standing for 10 min, and centrifuging at 12000 rpm/10 min; • 2.5.4 removing the supernatant, adding 1 mL of 75% ethanol for washing, centrifuging at 8000 rpm/5 min once, carefully removing the supernatant, standing at room temperature for 10 min to volatilize the ethanol, and dissolving the precipitate with 40 μL of DEPC treated water when the precipitate becomes transparent; • 2.5.5 RNA concentration was measured and DEPC-treated water was diluted to 100 ng/μL • 2.6 reverse transcription: Kit Takara (PrimeScript RT reagent Kit (Perfect Real Time)

And-1 [1] = target: T1, And-1 (Homo sapiens, UniProt O75717); assay: inhibition of And-1 in OV90 CR cells; type: cell-based; design: endogenous in cells; conditions: inhibition of And-1, OV90 CR cells
T1 sequence (O75717 1-1129): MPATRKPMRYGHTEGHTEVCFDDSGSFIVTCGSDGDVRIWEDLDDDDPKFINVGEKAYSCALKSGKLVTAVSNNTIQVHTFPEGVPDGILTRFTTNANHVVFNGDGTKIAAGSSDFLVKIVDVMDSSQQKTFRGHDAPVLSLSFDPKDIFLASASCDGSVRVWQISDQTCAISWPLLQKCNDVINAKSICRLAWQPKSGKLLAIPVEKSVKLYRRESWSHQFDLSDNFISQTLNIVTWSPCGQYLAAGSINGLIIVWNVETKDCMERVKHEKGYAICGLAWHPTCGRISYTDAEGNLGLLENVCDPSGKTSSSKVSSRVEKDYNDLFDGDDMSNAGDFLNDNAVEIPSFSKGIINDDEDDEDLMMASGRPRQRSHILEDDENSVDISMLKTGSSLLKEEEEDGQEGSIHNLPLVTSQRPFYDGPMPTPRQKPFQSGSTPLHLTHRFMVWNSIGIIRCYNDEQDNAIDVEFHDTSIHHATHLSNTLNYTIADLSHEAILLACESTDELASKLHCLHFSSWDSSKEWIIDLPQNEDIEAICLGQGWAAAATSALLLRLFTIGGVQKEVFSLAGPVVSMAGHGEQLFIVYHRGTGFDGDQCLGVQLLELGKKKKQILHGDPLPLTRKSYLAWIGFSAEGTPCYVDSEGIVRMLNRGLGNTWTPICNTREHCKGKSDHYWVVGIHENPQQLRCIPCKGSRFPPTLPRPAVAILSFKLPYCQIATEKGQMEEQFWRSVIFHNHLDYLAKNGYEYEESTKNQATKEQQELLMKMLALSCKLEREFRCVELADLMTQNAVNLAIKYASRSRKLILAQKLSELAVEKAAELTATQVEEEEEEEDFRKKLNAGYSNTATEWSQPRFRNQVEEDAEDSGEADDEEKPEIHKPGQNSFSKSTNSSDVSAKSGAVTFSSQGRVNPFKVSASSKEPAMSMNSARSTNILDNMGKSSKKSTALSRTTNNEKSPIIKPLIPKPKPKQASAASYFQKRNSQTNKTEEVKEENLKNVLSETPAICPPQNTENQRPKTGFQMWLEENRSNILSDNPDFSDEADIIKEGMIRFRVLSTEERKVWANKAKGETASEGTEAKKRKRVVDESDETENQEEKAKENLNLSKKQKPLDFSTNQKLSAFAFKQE

And-1 [2] = target: T1, And-1; assay: inhibition of And-1 in IGROV1 CR cells; type: cell-based; design: endogenous in cells; host or cells: IGROV1 CR; conditions: inhibition of And-1, IGROV1 CR cells
And-1 [3] = target: T1, And-1; assay: Western blot detection of And-1 protein expression in A549 cells; type: cell-based; design: endogenous in cells; host or cells: A549; conditions: A549 cell line, 5 μM, 24 hours
Protocol: Select the A549 cells in good growth condition and inoculate them in a 60 mm petri dish at a density of 500,000. After culturing in a constant temperature incubator at 37° C. and 5% CO2 for 24 hours, add different compounds of the same concentration (5 μM) and continue culturing for 24 hours before collecting Cells were subjected to Western blotting experiments to compare with untreated cells to detect the inhibitory effect of each compound on the expression of And-1 protein.

With OB1OCc2cc(/C=C/c3ccc(Cl)c(Cl)c3)ccc21 [III, (E)-5-(3,4-dichlorostyryl)benzo[c][1,2]oxaborol-1(3H)-ol] the “Relative mRNA expression of SCD-1” value (SREBP target gene SCD-1; AN3CA cells, 48 h, DMSO = 1) was 0.64, the “inhibitory effect on Srebp” value (SREBP target gene SCD-1; human endometrial cancer AN3CA cells) was “high inhibitory effect” and the IC50 (And-1 [1]) was 13.3 µM. For the same molecule, the IC50 (And-1 [2]) was 7.8 µM and 7.83 µM and the “expression of And-1 protein (Western blot)” value (And-1 [3]) was “significantly inhibit”.
